Patent US20260224595A1, “COMPOUNDS FOR THE TREATMENT OF MYOTONIC DYSTROPHY” (ETH ZURICH, priority 2022, published 2026)

Test system: miR-122 targets
Assay: RNA-Seq of miR-122 targetome (negative control)
Format: cell-based, human
Description: As described in Example 3, total RNA was isolated from DM-patient and healthy cells, and cDNA libraries were prepared for three conditions (healthy volunteer (HV); DM; DM+Compound II) for DM1 and DM2 backgrounds. The expression levels of predicted targetomes of miRNAs let-7, miR-1, miR-9, miR-29, miR-30, miR-107 and miR-181 were then compared, using miR-122 as well as more than 2,000 transcripts that are not predicted targets of any miRNA as negative controls. Three pair-wise comparisons were performed to measure: i) how a targetome varies between healthy and diseased cells (HV versus DM), ii) how a targetome responds to treatment with the inventive compounds (DM versus DM+Compound II) and, iii) how a Compound II-treated DM-targetome compares to that of a healthy signature. For each pair-wise comparison, the third dataset was used as a reference and the fold changes were calculated for each target transcript (e.g. DM1 vs. DM1+Compound II, with fold changes calculated relative to HV).
Primary myoblasts or myotubes derived from DM1 or DM2 patient samples and non-DM healthy control individuals were cultured for 90% confluence and then treated with 120 μM Compound II for 72 h. […] Quality and size distribution of the generated libraries was validated using an Agilent 2100 bioanalyzer with high-sensitivity RNA chip (Agilent) and RNA yield was measured using the Qubit […] HS Assay Kit followed by pooling of the libraries in batches of 12 and sequencing of […] pooled library on an Nextseq 500/High Output Flow Cell Cartridge using a paired end, 2×76 reads, single index protocol.
RNA-Seq reads were mapped to the human genome (build GRCh38) using STAR (Dobin et al., (2013). STAR: ultrafast universal RNA-seq aligner. Bioinformatics 29, 15-21) with gene annotations from gencode (www.gencodegenes.org; version 40). Reads mapping uniquely to exons were counted for each gene using htseq-count (Anders et al., (2015). HTSeq—a Python framework to work with high-throughput sequencing data. Bioinformatics 31, 166-169) with the parameter -s reverse and -m intersection_strict. […]

Compound: CC(=O)N(C)c1cccc(-c2ccc3nnc(C)n3n2)c1 [Compound II]
- change of miR-122 targets (DM1 and DM2 myotubes, 120 μM, 72 h): not significantly changed
- change of miR-122 targets (DM1 myoblasts, 120 μM, 72 h): not significantly changed
- change of miR-122 targets (DM2 myoblasts, compared to targetomes of other miRNAs): weaker change
